Columns and labels:
apoptosis = assay: TUNEL assay of endometriotic lesions; assay type: in vivo, mice; conditions: 3 weeks, control 8.7 ± 1.3
Description: The TUNEL assay is another immunohistological method used to show the amount of apoptosis, or programmed cell death, present in the uterine tissues. The TUNEL assay was performed on sections of uterine tissue according to manufacturer's instructions using ApopTag Fluorescein In Situ Apoptosis Detection Kit (# S7160, Millipore). The TUNEL assay, which identifies cells undergoing apoptosis, was semiquantitatively analyzed using areas of 0.02 mm^2 (3 different areas counted from each section, with sections obtained from 4 different lesions), and semiquantitatively analyzed.

PECAM1 (CD31) = assay: Immunohistochemistry of endometriotic lesions, PECAM1 (endothelial cells); assay type: in vivo, mice; conditions: 3 weeks, control 38.3 ± 3.6
Description: (§1) The presence and location of different proteins in the tissues obtained from the recipient mice. Samples of uterine tissue were isolated from the recipient mice, fixed by standard histological methods, and embedded in paraffin. Thin sections (5 μm) of the paraffin-embedded tissues were screened with standard immunohistochemical methods using antibodies to identify the expression of in the uterine tissues.
Primary antibodies that recognized MKI67 (Ki67), PECAM1 (CD31), ESR1, PGR, p-CHUK (IKK), p-STAT3, NOS2 (iNOS) and PTGS2 (COX2), and Vectastain Elite ABC Kit (# PK-6101), Mouse on Mouse Basic Kit (# BMK-2202, Vector laboratories) or DyLight-conjugated secondary antibody (#711-516-152, Jackson ImmunoResearch Lab) were used to show the presence of the proteins in the tissues, which were examined under microscopes. […]
The expression of PECAM1, a marker of endothelial cells, was semiquantitatively analyzed using areas of 0.02 mm^2 (3 different areas counted from each section, with sections obtained from 4 different lesions), and semiquantitatively analyzed.

ESR1 = assay: Immunohistochemistry of endometriotic lesions, ESR1; assay type: in vivo, mice; conditions: 3 weeks; for % of ESR1 positive cells/total cells/0.007 mm^2, Stroma: control 45.6 ± 6.9; for % of ESR1 positive cells/total cells/0.007 mm^2, Epithelium: control 79.1 ± 3.7
Description: as §1
Primary antibodies that recognized MKI67 (Ki67), PECAM1 (CD31), ESR1, PGR, p-CHUK (IKK), p-STAT3, NOS2 (iNOS) and PTGS2 (COX2), and Vectastain Elite ABC Kit (# PK-6101), Mouse on Mouse Basic Kit (# BMK-2202, Vector laboratories) or DyLight-conjugated secondary antibody (#711-516-152, Jackson ImmunoResearch Lab) were used to show the presence of the proteins in the tissues, which were examined under microscopes.
The primary antibodies used in these analyses were: anti-MKI67 (Ki67, 1:200 dilution, 550609, BD Biosciences), anti-PECAM1 (CD31, 1:100 dilution, ab28364, Abcam), anti-ESR1 (1:100 dilution, sc-542, Santa Cruz Biotechnology), anti-PGR (1:200 dilution, RB-9017-P0, Thermo Scientific), anti-p-CHUK (IKK, 1:150 dilution, 2697, Cell Signaling Technology), anti-p-STAT3 (1:50 dilution, 9145, Cell Signaling Technology), anti-NOS2 (iNOS, 1:50 dilution, 610333, BD Biosciences) and anti-PTGS2 (COX2, 1:50 dilution, RM-9121, Thermo Scientific).
(§2) The expression of MKI67, ESR1, PGR, p-CHUK, p-STAT3, NOS2 and PTGS2 proteins in uterine tissues, as determined by immunohistochemical analysis of uterine tissue sections, was semiquantitatively analyzed. Levels of apoptosis were analyzed by TUNEL assay and also semiquantitatively analyzed. Histological sections were obtained from 4 different lesions. For each section, three different areas measuring 0.007 mm^2 were chosen. In each of those areas, the total number of epithelial or stromal cells was counted, as was the number of cells that tested positive for expressing MKI67 (a marker of cellular proliferation), steroid receptors ESR1 and PGR, and inflammatory signaling molecules p-CHUK, p-STAT3, NOS2 and PTGS2 proteins.

p-CHUK (IKK) = assay: Immunohistochemistry of endometriotic lesions, p-CHUK; assay type: in vivo, mice; conditions: 3 weeks
Description: as §2, with “The presence and location of different proteins in the tissues obtained from the recipient mice. Samples of uterine tissue were isolated from the recipient mice, fixed by standard histological methods, and embedded in paraffin. Thin sections (5 μm) of the paraffin-embedded tissues were screened with standard immunohistochemical methods using antibodies to identify the expression of in the uterine tissues. […] The expression” for “The expression”, “semiquantitatively analyzed. […] Histological sections” for “semiquantitatively analyzed. Histological sections”

p-STAT3 = assay: Immunohistochemistry of endometriotic lesions, p-STAT3; assay type: in vivo, mice; conditions: 3 weeks; for % of p-STAT3 positive cells/total cells/0.007 mm^2, Stroma: control 11.5 ± 4.4
Description: as §2, with “The presence and location of different proteins in the tissues obtained from the recipient mice. Samples of uterine tissue were isolated from the recipient mice, fixed by standard histological methods, and embedded in paraffin. Thin sections (5 μm) of the paraffin-embedded tissues were screened with standard immunohistochemical methods using antibodies to identify the expression of in the uterine tissues. […] The expression” for “The expression”, “semiquantitatively analyzed. […] Histological sections” for “semiquantitatively analyzed. Histological sections”

female mice = assay: Effect of oral niclosamide on reproductive function (Study 2); assay type: in vivo
Description: The sham surgery was performed following the same steps as the endometriosis surgery except that no donor tissues were implanted onto the peritoneal walls of those mice; only sutures were applied to the peritoneal walls.
(§3) The recipient mice continued receiving oral daily niclosamide treatments until mouse pups were born, after which niclosamide treatment was discontinued. Three weeks after the pups were born, on postnatal day (PND) 21, the recipient mice were necropsied and the pups were weaned.
For each mated mouse, the following parameters were measured and recorded: the time of the formation of the vaginal plug after mating (days); the length of time that the mated mouse gestated or was pregnant (days); the number of pups born to each mated mouse; and the size and volume of the endometriotic lesions harvested from the mice after necropsy. Tissues were harvested from the mice, including endometriotic lesions and peritoneal walls to analyze the expression of proteins and genes of interest.
For each pup born to a mated mouse, its weight (g) at birth and on PND 21 was measured.

recipient mice = assay: General tolerability in recipient mice (Studies 1 and 2); assay type: in vivo
Description: Uterine tissue pieces of B6-GFP mice (donor) were implanted into the peritoneal walls of recipient mice.
as §3

[1] = rats; cited from earlier work
[2] = ORGANIZATION WH, 2002; cited from earlier work
[3] = after 3 weeks of treatment, 100 or 200 mg/kg b.w./day oral

## O=C(Nc1ccc([N+](=O)[O-])cc1Cl)c1cc(Cl)ccc1O [niclosamide, 5-chloro-N-(2-chloro-4-nitrophenyl)-2-hydroxybenzamide]
apoptosis; 100 mg/kg b.w./day oral
  Cell number of TUNEL positive cells/0.02 mm^2: 8.2 ± 1.3 cells/0.02 mm^2
apoptosis; 200 mg/kg b.w./day oral
  Cell number of TUNEL positive cells/0.02 mm^2: 7.8 ± 1.0 cells/0.02 mm^2
PECAM1 (CD31); 100 mg/kg b.w./day oral
  Cell number of PECAM1 positive cells/0.02 mm^2: 34.7 ± 3.6 cells/0.02 mm^2
PECAM1 (CD31); 200 mg/kg b.w./day oral
  Cell number of PECAM1 positive cells/0.02 mm^2: 32.7 ± 2.8 cells/0.02 mm^2
ESR1; 100 mg/kg b.w./day oral
  % of ESR1 positive cells/total cells/0.007 mm^2, Stroma: 55.9 ± 5.5%
  % of ESR1 positive cells/total cells/0.007 mm^2, Epithelium: 96.6 ± 2.0%
ESR1; 200 mg/kg b.w./day oral
  % of ESR1 positive cells/total cells/0.007 mm^2, Stroma: 37.7 ± 5.7%
  % of ESR1 positive cells/total cells/0.007 mm^2, Epithelium: 82.6 ± 5.6%
p-CHUK (IKK); 100 mg/kg b.w./day oral, control 83.4 ± 4.7
  % of p-CHUK positive cells/total cells/0.007 mm^2, Stroma: 86.3 ± 4.0%
p-CHUK (IKK); 100 mg/kg b.w./day oral, control 97.9 ± 2.1
  % of p-CHUK positive cells/total cells/0.007 mm^2, Epithelium: 92.3 ± 3.8%
p-CHUK (IKK); 200 mg/kg b.w./day oral, control 83.4 ± 4.7, p < 0.01
  % of p-CHUK positive cells/total cells/0.007 mm^2, Stroma: 56.2 ± 8.3 %
p-CHUK (IKK); 200 mg/kg b.w./day oral, control 97.9 ± 2.1, p < 0.05
  % of p-CHUK positive cells/total cells/0.007 mm^2, Epithelium: 76.7 ± 9.2 %
p-STAT3; 100 mg/kg b.w./day oral
  % of p-STAT3 positive cells/total cells/0.007 mm^2, Stroma: 6.9 ± 1.9%
p-STAT3; 100 mg/kg b.w./day oral, control 54.1 ± 3.9
  % of p-STAT3 positive cells/total cells/0.007 mm^2, Epithelium: 59.0 ± 5.4%
p-STAT3; 200 mg/kg b.w./day oral
  % of p-STAT3 positive cells/total cells/0.007 mm^2, Stroma: 4.1 ± 1.0%
p-STAT3; 200 mg/kg b.w./day oral, control 54.1 ± 3.9, p < 0.001
  % of p-STAT3 positive cells/total cells/0.007 mm^2, Epithelium: 26.4 ± 3.8 %
Female mice; 0 or 200 mg/kg b.w./day oral, mated after 4 days of treatment
  time to receive vaginal plug, between the groups: No significant differences
Female mice; 200 mg/kg b.w./day oral until pups were born
  pregnancy and birth in recipient mice exposed to niclosamide: became pregnant and gave birth
Female mice; 200 mg/kg b.w./day oral until pups were born vs 0
  gestational length, number of pups, and weight of pups at birth and on PND21: did not cause any differences
Recipient mice; [3]
  adverse effects including weight loss in recipient mice: no obvious adverse effects
  estrous cyclicity by vaginal cytology: observed in all mice
Recipient mice; daily 200 mg/kg b.w. for three (Study 1) to four weeks (Study 2)
  adverse reactions, such as weight loss or changes in behavior in the recipient mice: did not cause any adverse reactions
[1]
  plasma half-life: 7 h
[2]
  water solubility: < 20 µM
